From patent EP0535804A1, “Peptide compounds” (HITACHI CHEMICAL CO., LTD., priority 1991, dated 1993) come the findings set out here.

Assay [1] has as its system human endothelin 1. Description: Binding activity of radioactive ligand (125I-human endothelin 1) to peptide resin. To be noted: 125I-human endothelin 1 solution 0.131 ng/ml, 2 hours at room temperature, gamma counter. On the procedure: After blocking the sites susceptible to adsorption on the peptide resin obtained in (2) above with 0.2% skim milk solution, the peptide was suspended in 100 ml of ^1251-human endothelin 1 (specific activity: 74 TBq- /mmol) solution (0.131 ng/ml) (prepared by dissolving in Dalbecco's phosphate buffered biological saline containing 0.1 % skim milk and 0.1 % Tween) and allowed to react for 2 hours at room temperature. Following the binding reaction, the peptide resin was thoroughly washed with washing buffer (Dalbecco's phosphate buffered biological saline containing 0.1 % Tween), and the radioactivity bound to the peptide resin was measured with a gamma counter.

The test system of assay [2] is human endothelin 1. The assay is described as follows: Enzymeimmuno competitive inhibition assay of endothelin 1 binding to peptide resin. To be noted: 3 hours at room temperature. As for the experimental part:
After blocking those sites susceptible to nonspecific adsorption on the peptide resin obtained in (2) above with 0.2% skim milk solution, the peptide resin was immersed in 200 µl of human endothelin 1 solution (0.2 µg/ml) (prepared by dissolving in Dalbecco's phosphate buffered biological saline containing 0.1% skim milk and 0.1 % Tween 20). After allowing to react for 3 hours at room temperature while stirring gently, the resulting solution was used as sample solution (i).
Separate from the above, the wells of an ELISA microplate were coated overnight at 4°C with 200 µl of human endothelin 1 solution (1 wg/ml). […]
After washing the human endothelin 1 coated plate (ii) with washing buffer (Dalbecco's phosphate buffered biological saline containing 0.1% Tween), 50 µl of sample solution (i) was added followed immediately by the addition of 200 µl of anti-human endothelin 1 rabbit antibody solution (using Dalbecco's phosphate buffered biological saline containing 0.1% skim milk and 0.1% Tween as the dilution buffer). […] After similarly washing the plate and adding 200 µl of substrate solution (1 mg p-nitrophenyl phosphate/ml 1M diethanolamine buffer), the amount of p-nitrophenol released by the labelled enzyme present on the plate was determined by measuring the absorbance at 405 nm. […]

Ends that are not written are not given here.

For the substance KRGFPP, the “amount of human endothelin 1 bound to the peptide resin” value with human endothelin 1 [1] was found to be 5.18 pg. The substance further came in with an inhibitory activity in the assay on human endothelin 1 [2] (decrease of endothelin 1 antigen activity after binding to peptide resin pins, 0.2 µg/ml) of 21.1%. Further, the “antigen activity of human endothelin 1 in said sample solution (i)” value in the assay with human endothelin 1 [2] (remaining relative to before the binding reaction to the peptide resin pins, endothelin 1 solution 0.2 µg/ml, 200 µl) stood at 78.9%.
